Assay results published in patent US11420970B1 (NOVARTIS AG, priority 2019, dated 2022).

Tests used:
NSD2 [1-1365] = NSD2 [1-1365] (Homo sapiens (Human), UniProt O96028); assay: LC-MS/MS-based NSD2 enzymatic assay (SAH production); type: biochemical; conditions: read-out: NSD2 IC50
Method in brief: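 Full-length NSD2 [1-1365] (8 nM final) with 1 μM SAM and 400 nM mouse-liver nucleosome in Tris pH 8.0 buffer; inhibitor preincubated 20 min with enzyme/SAM before nucleosome addition. Reaction 90 min at room temperature, TFA-quenched; SAH quantified by LC-MS/MS against d4-SAH internal standard and SAH standard curve.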

[1] = tested on: cellular H3K36me2 level in thyroid carcinoma cell line CGTH-W-1 (NSD2 E1099K); assay: H3K36me2 cellular ELISA assay in CGTH-W-1 line; type: cell-based; conditions: Homo sapiens, CGTH-W-1, 72 h, read-out: H3K36me2 ELISA in CGTH-W-1
Method in brief: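 CGTH-W-1 thyroid carcinoma cells (NSD2 E1099K gain-of-function) exposed to compound for 72 hours. Histone-bound plates probed for H3K36me2 and total H3 by chemiluminescent ELISA. Viability checked on a parallel plate with CellTiter-Glo.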

[2] = tested on: cellular H3K36me2 level in multiple myeloma cell line KMS11 (t(4;14)+); assay: H3K36me2 cellular ELISA assay in KMS11-Par line; type: cell-based; conditions: Homo sapiens, KMS-11; KMS11-Par line, ELISA, 72 hours; read-out: H3K36me2 ELISA in KMS11-Par
Method in brief: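 KMS11 cells were seeded a day ahead at 1,250 per well in Opti-MEM with B-27/N2, then treated with compound for 72 h. Histones were acid-extracted with 0.4M HCl, and H3K36me2 and total H3 were read by chemiluminescent ELISA. Viability was checked with CellTiter-Glo on a parallel plate in maintenance media.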

NSD2 [1-1365], sequence (O96028 whole entry): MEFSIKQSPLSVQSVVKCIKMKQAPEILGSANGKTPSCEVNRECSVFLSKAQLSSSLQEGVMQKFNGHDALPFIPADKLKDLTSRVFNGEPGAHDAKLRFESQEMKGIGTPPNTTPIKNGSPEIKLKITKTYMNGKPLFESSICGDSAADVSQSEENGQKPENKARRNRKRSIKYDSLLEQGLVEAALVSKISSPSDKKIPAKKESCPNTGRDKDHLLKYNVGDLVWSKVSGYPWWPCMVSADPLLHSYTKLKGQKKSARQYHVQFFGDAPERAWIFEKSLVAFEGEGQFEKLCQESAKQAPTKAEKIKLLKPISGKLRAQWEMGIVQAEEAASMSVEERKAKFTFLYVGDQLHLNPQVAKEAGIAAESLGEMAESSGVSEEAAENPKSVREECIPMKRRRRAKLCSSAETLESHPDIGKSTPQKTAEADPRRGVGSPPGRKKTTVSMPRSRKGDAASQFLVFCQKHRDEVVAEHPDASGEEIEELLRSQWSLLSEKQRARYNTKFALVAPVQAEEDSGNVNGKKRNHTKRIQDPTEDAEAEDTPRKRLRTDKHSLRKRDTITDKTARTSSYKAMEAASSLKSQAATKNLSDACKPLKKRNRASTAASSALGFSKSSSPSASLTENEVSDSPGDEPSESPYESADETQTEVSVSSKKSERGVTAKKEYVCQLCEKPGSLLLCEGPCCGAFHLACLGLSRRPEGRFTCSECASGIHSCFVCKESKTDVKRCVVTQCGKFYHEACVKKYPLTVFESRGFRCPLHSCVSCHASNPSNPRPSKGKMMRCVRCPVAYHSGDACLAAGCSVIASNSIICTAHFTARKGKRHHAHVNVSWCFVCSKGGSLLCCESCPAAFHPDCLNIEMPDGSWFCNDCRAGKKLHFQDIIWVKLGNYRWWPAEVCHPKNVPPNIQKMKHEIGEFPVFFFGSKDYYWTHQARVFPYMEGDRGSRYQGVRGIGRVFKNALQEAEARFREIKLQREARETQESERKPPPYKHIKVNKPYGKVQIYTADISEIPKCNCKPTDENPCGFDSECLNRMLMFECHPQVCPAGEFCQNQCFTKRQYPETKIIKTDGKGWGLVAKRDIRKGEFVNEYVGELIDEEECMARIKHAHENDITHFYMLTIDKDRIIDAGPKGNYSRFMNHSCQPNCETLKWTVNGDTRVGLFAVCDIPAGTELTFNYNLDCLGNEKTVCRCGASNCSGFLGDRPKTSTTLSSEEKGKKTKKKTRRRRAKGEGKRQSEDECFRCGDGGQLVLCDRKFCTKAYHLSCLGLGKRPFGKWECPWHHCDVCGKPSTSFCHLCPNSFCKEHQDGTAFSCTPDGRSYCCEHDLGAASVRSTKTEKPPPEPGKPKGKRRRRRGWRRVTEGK

Work on Nc1ncnc2c1ncn2Cc1cc(-c2cnc(F)c(Cl)c2)ncc1N1CCC[C@](N)(c2cccc(Cl)n2)C1 [Example 180, (R)-9-((5-(3-amino-3-(6-chloropyridin-2-yl)piperidin-1-yl)-5′-chloro-6′-fluoro-[2,3′-bipyridin]-4-yl)methyl)-9H-purin-6-amine] yielded an IC50 (NSD2 [1-1365]) of 10 to 1000 nM, an IC50 [1] of 1460 nM and an IC50 [2] of 5490 nM.

For COc1ccc(-c2cc(Cn3cnc4c(N)ncnc43)c(N3CCC[C@](N)(c4cccc(Cl)n4)C3)cn2)c(F)c1 [Example 181, (R)-9-((5-(3-amino-3-(6-chloropyridin-2-yl)piperidin-1-yl)-2-(2-fluoro-4-methoxyphenyl)pyridin-4-yl)methyl)-9H-purin-6-amine], the IC50 (NSD2 [1-1365]) was 10 to 1000 nM, the IC50 [1] was 1560 nM and the IC50 [2] was 1980 nM.

In the case of Nc1ncnc2c1ncn2Cc1cc(-c2ccc(F)cc2)ncc1N1CCC[C@](N)(c2cccc(C3CC3)n2)C1 [Example 182, (R)-9-((5-(3-amino-3-(6-cyclopropylpyridin-2-yl)piperidin-1-yl)-2-(4-fluorophenyl)pyridin-4-yl)methyl)-9H-purin-6-amine], the IC50 (NSD2 [1-1365]) is reported as 1 to 10 nM, the IC50 [1] is reported as 97.5 nM and the IC50 [2] is reported as 142 nM.

In the case of C[C@H](F)c1cccc([C@@]2(N)CCCN(c3cnc(-c4ccc(F)cc4)cc3Cn3cnc4c(N)ncnc43)C2)n1 [Example 183, 9-((5-((R)-3-amino-3-(6-((S)-1-fluoroethyl)pyridin-2-yl)piperidin-1-yl)-2-(4-fluorophenyl)pyridin-4-yl)methyl)-9H-purin-6-amine], the IC50 (NSD2 [1-1365]) is reported as 10 to 1000 nM, the IC50 [1] is reported as 159 nM and the IC50 [2] is reported as 455 nM.

COc1cc(F)c(-c2cc(Cn3cnc4c(N)ncnc43)c(N3CCC[C@](N)(c4cccc(Cl)n4)C3)cn2)cc1F [Example 187, (R)-9-((5-(3-amino-3-(6-chloropyridin-2-yl)piperidin-1-yl)-2-(2,5-difluoro-4-methoxyphenyl)pyridin-4-yl)methyl)-9H-purin-6-amine] showed an IC50 (NSD2 [1-1365]) of 10 to 1000 nM, an IC50 [1] of 383 nM and an IC50 [2] of 815 nM.

COc1ccc(-c2cc(Cn3cnc4c(N)ncnc43)c(N3CCC[C@](N)(c4ccc(F)c(Cl)n4)C3)cn2)cc1F [Example 188, (R)-9-((5-(3-amino-3-(6-chloro-5-fluoropyridin-2-yl)piperidin-1-yl)-2-(3-fluoro-4-methoxyphenyl)pyridin-4-yl)methyl)-9H-purin-6-amine] was tested, and the IC50 (NSD2 [1-1365]) was 1 to 10 nM, the IC50 [1] was 1010 nM and the IC50 [2] was 1910 nM.

With Cc1nc([C@@]2(N)CCCN(c3cnc(-c4ccc(F)cc4)cc3Cn3cnc4c(N)ncnc43)C2)ccc1F [Example 190, (R)-9-((5-(3-amino-3-(5-fluoro-6-methylpyridin-2-yl)piperidin-1-yl)-2-(4-fluorophenyl)pyridin-4-yl)methyl)-9H-purin-6-amine] the IC50 (NSD2 [1-1365]) was 1 to 10 nM, the IC50 [1] was 258 nM and the IC50 [2] was 687 nM.

Nc1ncnc2c1ncn2Cc1cc(-c2ccc(F)c(Cl)n2)ncc1N1CCC[C@](N)(c2cccc(Cl)n2)C1 [Example 191, (R)-9-((5-(3-amino-3-(6-chloropyridin-2-yl)piperidin-1-yl)-6′-chloro-5′-fluoro-[2,2′-bipyridin]-4-yl)methyl)-9H-purin-6-amine] gave an IC50 (NSD2 [1-1365]) of 10 to 1000 nM, an IC50 [1] of 1380 nM and an IC50 [2] of 4560 nM.

Nc1ncnc2c1ncn2Cc1cc(-c2ccc(F)c(F)c2)ncc1N1CCC[C@](N)(c2nc(Cl)ccc2F)C1 [Example 192, (R)-9-((5-(3-amino-3-(6-chloro-3-fluoropyridin-2-yl)piperidin-1-yl)-2-(3,4-difluorophenyl)pyridin-4-yl)methyl)-9H-purin-6-amine] showed an IC50 (NSD2 [1-1365]) of 10 to 1000 nM, an IC50 [1] of 731 nM and an IC50 [2] of 2180 nM.

Work on Nc1ncnc2c1ncn2Cc1cc(-c2ccc(F)cc2)ncc1N1CCCC(N)(c2ccc(F)c(CF)n2)C1 (stereo not drawn) [Example 193, 9-((5-(3-amino-3-(5-fluoro-6-(fluoromethyl)pyridin-2-yl)piperidin-1-yl)-2-(4-fluorophenyl)pyridin-4-yl)methyl)-9H-purin-6-amine] yielded an IC50 (NSD2 [1-1365]) of 10 to 1000 nM, an IC50 [1] of 876 nM and an IC50 [2] of 1850 nM.

COc1ccc(-c2cc(Cn3cnc4c(N)ncnc43)c(N3CCC[C@](N)(c4cccc(Cl)n4)C3)cn2)nc1Cl [Example 194, (R)-9-((5-(3-amino-3-(6-chloropyridin-2-yl)piperidin-1-yl)-6′-chloro-5′-methoxy-[2,2′-bipyridin]-4-yl)methyl)-9H-purin-6-amine] was tested, and the IC50 (NSD2 [1-1365]) was 10 to 1000 nM, the IC50 [1] was 805 nM and the IC50 [2] was 3280 nM.

Nc1ncnc2c1ncn2Cc1cc(-c2ccc(F)cn2)ncc1N1CCC[C@](N)(c2cccc(Cl)n2)C1 [Example 196, (R)-9-((5-(3-amino-3-(6-chloropyridin-2-yl)piperidin-1-yl)-5′-fluoro-[2,2′-bipyridin]-4-yl)methyl)-9H-purin-6-amine] was tested, and the IC50 (NSD2 [1-1365]) was 10 to 1000 nM, the IC50 [1] was 637 nM and the IC50 [2] was 2690 nM.

For Nc1ncnc2c1ncn2Cc1cc(-c2ccc(F)c(F)c2)ncc1N1CCC[C@](N)(c2ccccn2)C1 [Example 198, (R)-9-((5-(3-amino-3-(pyridin-2-yl)piperidin-1-yl)-2-(3,4-difluorophenyl)pyridin-4-yl)methyl)-9H-purin-6-amine], the IC50 (NSD2 [1-1365]) was 1 to 10 nM, the IC50 [1] was 17.7 nM and the IC50 [2] was 41 nM.

Nc1ncnc2c1ncn2Cc1cc(-c2ccc(F)c(F)c2)ncc1N1CCC[C@](N)(c2cccc(Cl)n2)C1 [Example 200, (R)-9-((5-(3-amino-3-(6-chloropyridin-2-yl)piperidin-1-yl)-2-(3,4-difluorophenyl)pyridin-4-yl)methyl)-9H-purin-6-amine] showed an IC50 (NSD2 [1-1365]) of 1 to 10 nM, an IC50 [1] of 180 nM and an IC50 [2] of 330 nM.

Nc1ncnc2c1ncn2Cc1cc(-c2ccc(F)c(F)c2)ncc1N1CCC[C@](N)(c2cccc(F)n2)C1 [Example 201, (R)-9-((5-(3-amino-3-(6-fluoropyridin-2-yl)piperidin-1-yl)-2-(3,4-difluorophenyl)pyridin-4-yl)methyl)-9H-purin-6-amine] gave an IC50 (NSD2 [1-1365]) of 1 to 10 nM, an IC50 [1] of 123 nM and an IC50 [2] of 286 nM.

Compound Nc1ncnc2c1ncn2Cc1cc(-c2ccc(F)c(F)c2)ncc1N1CCC[C@](N)(c2cc(O)cc(F)n2)C1 [Example 206, (R)-2-(3-amino-1-(4-((6-amino-9H-purin-9-yl)methyl)-6-(3,4-difluorophenyl)pyridin-3-yl)piperidin-3-yl)-6-fluoropyridin-4-ol] has an IC50 (NSD2 [1-1365]) of 1 to 10 nM, an IC50 [1] of 117 nM and an IC50 [2] of 1160 nM.

Compound C[C@@H](F)c1cccc([C@@]2(N)CCCN(c3cnc(-c4ccc(F)cc4)cc3Cn3cnc4c(N)ncnc43)C2)n1 [Example 212, 9-((5-((R)-3-amino-3-(6-((R)-1-fluoroethyl)pyridin-2-yl)piperidin-1-yl)-2-(4-fluorophenyl)pyridin-4-yl)methyl)-9H-purin-6-amine] has an IC50 (NSD2 [1-1365]) of 10 to 1000 nM, an IC50 [1] of 132 nM and an IC50 [2] of 289 nM.

Compound COc1ccc(-c2cc(Cn3cnc4c(N)ncnc43)c(N3CCC[C@](N)(c4cccc(Cl)n4)C3)cn2)cc1F [Example 213, (R)-9-((5-(3-amino-3-(6-chloropyridin-2-yl)piperidin-1-yl)-2-(3-fluoro-4-methoxyphenyl)pyridin-4-yl)methyl)-9H-purin-6-amine] has an IC50 (NSD2 [1-1365]) of 1 to 10 nM, an IC50 [1] of 258 nM and an IC50 [2] of 387 nM.

Nc1ncnc2c1ncn2Cc1cc(-c2ccc(F)c(F)c2)ncc1N1CCCC(N)(c2ccc(O)c(F)n2)C1 (stereo not drawn) [Example 214, 6-(3-amino-1-(4-((6-amino-9H-purin-9-yl)methyl)-6-(3,4-difluorophenyl)pyridin-3-yl)piperidin-3-yl)-2-fluoropyridin-3-ol] gave an IC50 (NSD2 [1-1365]) of 10 to 1000 nM, an IC50 [1] of 444 nM and an IC50 [2] of 2430 nM.

For COc1ccc(-c2cc(Cn3cnc4c(N)ncnc43)c(N3CCC[C@](N)(c4ccc(F)c(Cl)n4)C3)cn2)cc1 [Example 216, (R)-9-((5-(3-amino-3-(6-chloro-5-fluoropyridin-2-yl)piperidin-1-yl)-2-(4-methoxyphenyl)pyridin-4-yl)methyl)-9H-purin-6-amine], the IC50 (NSD2 [1-1365]) was 10 to 1000 nM, the IC50 [1] was 1880 nM and the IC50 [2] was 2570 nM.

Compound Nc1ncnc2c1ncn2Cc1cc(-c2ccc(F)c(F)c2)ncc1N1CCC[C@](N)(c2cc(O)cc(Cl)n2)C1 [Example 219, (R)-2-(3-amino-1-(4-((6-amino-9H-purin-9-yl)methyl)-6-(3,4-difluorophenyl)pyridin-3-yl)piperidin-3-yl)-6-chloropyridin-4-ol] has an IC50 (NSD2 [1-1365]) of 1 to 10 nM, an IC50 [1] of 407 nM and an IC50 [2] of 3450 nM.

For Nc1ncnc2c1ncn2Cc1cc(-c2ccc(F)cc2)ncc1N1CCC[C@](N)(c2ccc(F)c(Cl)n2)C1 [Example 221, (R)-9-((5-(3-amino-3-(6-chloro-5-fluoropyridin-2-yl)piperidin-1-yl)-2-(4-fluorophenyl)pyridin-4-yl)methyl)-9H-purin-6-amine], the IC50 (NSD2 [1-1365]) was 1 to 10 nM, the IC50 [1] was 269 nM and the IC50 [2] was 1290 nM.

COc1ccc(-c2cc(Cn3cnc4c(N)ncnc43)c(N3CCC[C@](N)(c4cccc(Cl)n4)C3)cn2)nc1F [Example 224, (R)-9-((5-(3-amino-3-(6-chloropyridin-2-yl)piperidin-1-yl)-6′-fluoro-5′-methoxy-[2,2′-bipyridin]-4-yl)methyl)-9H-purin-6-amine] gave an IC50 (NSD2 [1-1365]) of 1 to 10 nM, an IC50 [1] of 348 nM and an IC50 [2] of 1710 nM.
